In US4000160A, “Pyrrolyl oxyphenyl ketones” (Sterling Drug Inc., priority 1975, dated 1976):
In brackets after ≈: the same amount, converted by molar mass. Like-named read-outs stand apart in the source and are kept apart here.

Assays:
Assay type in all cases: cell-based
[1] = tested on: Pseudomonas aeruginosa 211; assay: in vitro antibacterial test (modified Autotiter method), minimum inhibitory concentration
Method: (§1) The antibacterial activity was determined using a modification of the Autotiter method described by Goss et al., Applied Microbiology, 16 (No. 9), 1414-1416 (1968) in which a 1000 mcg./ml. solution of the test compound is prepared. To the first cup of the Autotray is added 0.1 ml. of the test solution. Activation of the Autotiter initiates a sequence of operations by which 0.05 ml. of the test compound solution is withdrawn from this cup by a Microtiter transfer loop and diluted in 0.05 ml. of sterile semisynthetic medium (glucose). After this operation, 0.05 ml. of inoculated semisynthetic medium is added automatically to each cup. The overall operation results in final drug concentrations ranging from 500 to 0.06 mcg./ml. in twofold decrements. The Autotray is incubated for 18-20 hours at 37° C., at which time the trays are examined visually for growth as evidenced by turbidity, and the concentration of the last sample in the series showing no growth (or no turbidity) is recorded as the minimal inhibitory concentration (MIC). The compounds of formula I were thus found to be antibacterially effective against Staphylococcus aureus, Pseudomonas aeruginosa, Escherichia coli, and Proteus vulgaris at concentrations from 2 to 500 mcg./ml.
(§2) Data, expressed in terms of the minimum inhibitory concentration in mcg./ml., obtained in in vitro tests of the compounds of the invention in comparison with pyoluteorin against the bacterial organisms Staphylococcus aureus 209, Escherichia coli 198, Klebsiella pneumoniae 39645, Proteus vulgaris 9920, and Pseudomonas aeruginosa 211 (identified below as organisms A, B, C, D and E, respectively) are given in the table below.

Proteus vulgaris 9920 = assay: as above
Method: as §1, §2

[2] = tested on: Klebsiella pneumoniae 39645; assay: as above; settings: organism C
Method: as §1, §2

[3] = tested on: Staphylococcus aureus 209; assay: as above
Method: as §1, §2

Escherichia coli 198 = assay: as above
Method: as §1, §2

Ceratocystis ulmi [4] = assay: agar growth test, percent inhibition of Ceratocystis ulmi; settings: 120 h, read-out: % Inhibition, Agar Growth
Method: (§3) The test procedures, the agar growth and shake culture tests, used to determine this latter activity are described as follows: In the agar growth test a solution of 2 mg. of the test compound in 2 ml. of acetone was prepared and 0.2 ml. of this solution was added via sterile glass pipette to 20 ml. of molten (42° C.) sterile potato dextrose agar. Mixing was accomplished by repeated inversion of the tube. The mixture was poured into a sterile Petri dish, allowed to solidify at room temperature, and then was inoculated by placing in the center of the agar-chemical mixture a section (3 mm. diameter) of agar permeated with the mycelium of Ceratocystis ulmi. The inoculated dish was incubated at 25° C. for 5 days when the diameter of growth was measured and compared to the growth which had occurred in a control culture. The percent inhibition was calculated as: [formula] In the shake culture test, a 0.2 ml. aliquot of an acetone solution of the test compound (2 mg. in 2 ml.) was added to 20 ml. of sterile potato dextrose broth in a sterile 250 ml. Erlenmeyer flask. The flask was stoppered with a plug of sterile cotton, and the mixture was shaken for one hour on a New Brunswick "Gyrotatary" shake table. The mixture was inoculated by addition of a section (3 mm. diameter) of agar permeated with the mycelium of Ceratocystis ulmi and returned to the shake table where shaking was continued for five days at room temperature. The optical density of the mixture was measured, using an uninoculated sample of the broth as a blank, and compared with a control sample. The percent inhibition was calculated as: […]
(§4) Data obtained for the compounds of the invention in in vitro tests against fungal organism, Ceratocystis ulmi, in the agar growth and shake culture tests in comparison with the known antibiotic, pyoluteorin, at a standard dilution of 10 parts per million are given in terms of percent inhibition in the table below. The compounds are identified by reference to the example number above where their preparation is described.

Ceratocystis ulmi [5] = assay: shake culture test, percent inhibition of Ceratocystis ulmi; settings: 120 h, read-out: % Inhibition, Shake Culture
Method: as §3, §4

[6] = organism E, Pseudomonas aeruginosa 211, in vitro, read-out: minimum inhibitory concentration (MIC)
[7] = organism D, Proteus vulgaris 9920, in vitro, read-out: minimum inhibitory concentration (MIC)
[8] = organism A, Staphylococcus aureus 209, in vitro, read-out: minimum inhibitory concentration (MIC)
[9] = organism B, Escherichia coli 198, in vitro, read-out: minimum inhibitory concentration (MIC)
[10] = 10 parts per million, agar, 25° C., 5 days
[11] = 10 parts per million, broth, room temperature, five days

Which MIC [1, 6] does the source give for `COc1ccc(C(=O)c2cc(Cl)c(Cl)[nH]2)c(OC)c1` [Example 1, 4,5-dichloropyrrol-2-yl 2,4-dimethoxyphenyl ketone] here?
Its MIC is > 125 µg/mL.

And the MIC (Proteus vulgaris 9920; [7])?
The MIC was > 125 µg/mL.

And the MIC [2]?
The MIC was > 125 µg/mL.

What about the MIC [3, 8] of the same compound?
The MIC was 62.5 µg/mL (≈ 208 µM).

And the MIC (Escherichia coli 198; [9])?
Its MIC is > 125 µg/mL.

And the inhibition of growth at 10 µg/mL (Ceratocystis ulmi [4]; [10])?
Its inhibition of growth at 10 µg/mL is 28%.

What about the inhibition of growth at 10 µg/mL (Ceratocystis ulmi [5]; [11]) of the same compound?
The inhibition of growth at 10 µg/mL was 30%.

With `COc1ccc(OC)c(C(=O)c2cc(Br)c(Br)[nH]2)c1` [Example 2, 4,5-dibromopyrrol-2-yl 2,5-dimethoxyphenyl ketone] as the compound, how does the MIC [1, 6] read?
The MIC was > 125 µg/mL.

And the MIC (Proteus vulgaris 9920; [7])?
The MIC was > 125 µg/mL.

And the MIC [2]?
The MIC was > 125 µg/mL.

What about the MIC [3, 8] of the same compound?
The MIC was 31.3 µg/mL (≈ 80.5 µM).

What about the MIC (Escherichia coli 198; [9]) of the same compound?
Its MIC is > 125 µg/mL.

What about the inhibition of growth at 10 µg/mL (Ceratocystis ulmi [4]; [10]) of the same compound?
Its inhibition of growth at 10 µg/mL is 32%.

And the inhibition of growth at 10 µg/mL (Ceratocystis ulmi [5]; [11])?
The inhibition of growth at 10 µg/mL was 38%.

Which results are given for `COc1ccc(C(=O)c2cc(Cl)c(Cl)[nH]2)cc1OC` [Example 3, 4,5-dichloropyrrol-2-yl 3,4-dimethoxyphenyl ketone]?
MIC [1, 6]: > 125 µg/mL; MIC (Proteus vulgaris 9920; [7]): > 125 µg/mL; MIC [2]: > 125 µg/mL; MIC [3, 8]: > 125 µg/mL; MIC (Escherichia coli 198; [9]): > 125 µg/mL; inhibition of growth at 10 µg/mL (Ceratocystis ulmi [4]; [10]): 25%; inhibition of growth at 10 µg/mL (Ceratocystis ulmi [5]; [11]): 75%

What does the source list for `COc1ccc(OC)c(C(=O)c2cc(Cl)c(Cl)[nH]2)c1` [Example 4, 4,5-dichloropyrrol-2-yl 2,5-dimethoxyphenyl ketone]?
MIC [1, 6]: > 125 µg/mL; MIC (Proteus vulgaris 9920; [7]): > 125 µg/mL; MIC [2]: > 125 µg/mL; MIC [3, 8]: > 125 µg/mL; MIC (Escherichia coli 198; [9]): > 125 µg/mL; inhibition of growth at 10 µg/mL (Ceratocystis ulmi [4]; [10]): 48%; inhibition of growth at 10 µg/mL (Ceratocystis ulmi [5]; [11]): 72%

With `O=C(c1cc(Br)c(Br)[nH]1)c1cc(O)ccc1O` [Example 5, 4,5-dibromopyrrol-2-yl 2,5-dihydroxyphenyl ketone] as the compound, how does the MIC [1, 6] read?
Its MIC is 125 µg/mL (≈ 346 µM).

What about the MIC (Proteus vulgaris 9920; [7]) of the same compound?
The MIC was 62.5 µg/mL (≈ 173 µM).

And the MIC [2]?
Its MIC is > 125 µg/mL.

And the MIC [3, 8]?
Its MIC is 15.6 µg/mL (≈ 43.2 µM).

And the MIC (Escherichia coli 198; [9])?
The MIC was 125 µg/mL (≈ 346 µM).

What about the inhibition of growth at 10 µg/mL (Ceratocystis ulmi [4]; [10]) of the same compound?
Its inhibition of growth at 10 µg/mL is 28%.

What about the inhibition of growth at 10 µg/mL (Ceratocystis ulmi [5]; [11]) of the same compound?
The inhibition of growth at 10 µg/mL was 83%.

Which results are given for `COc1ccc(C(=O)c2cc(Br)c(Br)[nH]2)cc1` [Example 6, 4,5-dibromopyrrol-2-yl 4-methoxyphenyl ketone]?
MIC [1, 6]: > 125 µg/mL; MIC (Proteus vulgaris 9920; [7]): > 125 µg/mL; MIC [2]: > 125 µg/mL; MIC [3, 8]: > 125 µg/mL; MIC (Escherichia coli 198; [9]): > 125 µg/mL; inhibition of growth at 10 µg/mL (Ceratocystis ulmi [4]; [10]): 11%; inhibition of growth at 10 µg/mL (Ceratocystis ulmi [5]; [11]): 66%

What does the source list for `COc1ccc(C(=O)c2cc(Cl)c(Cl)[nH]2)cc1` [Example 7, 4,5-dichloropyrrol-2-yl 4-methoxyphenyl ketone]?
MIC [1, 6]: > 250 µg/mL; MIC (Proteus vulgaris 9920; [7]): 62.5 µg/mL (≈ 231 µM); MIC [2]: > 62.5 µg/mL; MIC [3, 8]: > 31.6 µg/mL; MIC (Escherichia coli 198; [9]): 15.6 µg/mL (≈ 57.8 µM); inhibition of growth at 10 µg/mL (Ceratocystis ulmi [4]; [10]): 32%; inhibition of growth at 10 µg/mL (Ceratocystis ulmi [5]; [11]): 61%

How did the MIC [1, 6] turn out when `COc1cccc(C(=O)c2cc(Br)c(Br)[nH]2)c1` [Example 8, 4,5-dibromopyrrol-2-yl 3-methoxyphenyl ketone] was run?
Its MIC is > 125 µg/mL.

And the MIC (Proteus vulgaris 9920; [7])?
Its MIC is 125 µg/mL (≈ 348 µM).

And the MIC [2]?
The MIC was > 250 µg/mL.

What about the MIC [3, 8] of the same compound?
Its MIC is 250 µg/mL (≈ 696 µM).

What about the MIC (Escherichia coli 198; [9]) of the same compound?
Its MIC is 250 µg/mL (≈ 696 µM).

What about the inhibition of growth at 10 µg/mL (Ceratocystis ulmi [4]; [10]) of the same compound?
Its inhibition of growth at 10 µg/mL is 28%.

What about the inhibition of growth at 10 µg/mL (Ceratocystis ulmi [5]; [11]) of the same compound?
Its inhibition of growth at 10 µg/mL is 75%.

Which MIC [1, 6] does the source give for `O=C(c1cc(Cl)c(Cl)[nH]1)c1ccc(O)cc1O` [Example 9, 4,5-dichloropyrrol-2-yl 2,4-dihydroxyphenyl ketone] here?
Its MIC is > 125 µg/mL.

What about the MIC (Proteus vulgaris 9920; [7]) of the same compound?
The MIC was > 125 µg/mL.

What about the MIC [2] of the same compound?
The MIC was > 125 µg/mL.

What about the MIC [3, 8] of the same compound?
Its MIC is 3.9 µg/mL (≈ 14.3 µM).

What about the MIC (Escherichia coli 198; [9]) of the same compound?
Its MIC is 31.3 µg/mL (≈ 115 µM).

And the inhibition of growth at 10 µg/mL (Ceratocystis ulmi [4]; [10])?
The inhibition of growth at 10 µg/mL was 55%.

What about the inhibition of growth at 10 µg/mL (Ceratocystis ulmi [5]; [11]) of the same compound?
The inhibition of growth at 10 µg/mL was 72%.

Which results are given for `O=C(c1cc(Cl)c(Cl)[nH]1)c1cc(O)ccc1O` [Example 10, 4,5-dichloropyrrol-2-yl 2,5-dihydroxyphenyl ketone]?
MIC [1, 6]: 125 µg/mL (≈ 459 µM); MIC (Proteus vulgaris 9920; [7]): 62.5 µg/mL (≈ 230 µM); MIC [2]: 125 µg/mL (≈ 459 µM); MIC [3, 8]: 0.98 µg/mL (≈ 3.6 µM); MIC (Escherichia coli 198; [9]): 125 µg/mL (≈ 459 µM); inhibition of growth at 10 µg/mL (Ceratocystis ulmi [4]; [10]): 21%; inhibition of growth at 10 µg/mL (Ceratocystis ulmi [5]; [11]): 64%

Which results are given for `O=C(c1cc(Cl)c(Cl)[nH]1)c1c(O)cccc1O` [Pyoluteorin, 4,5-dichloropyrrol-2-yl 2,6-dihydroxyphenyl ketone, reference compound]?
MIC ([1]; Pseudomonas aeruginosa, 211, read-out: minimum inhibitory concentration (MIC)): 125 µg/mL (≈ 459 µM); MIC (Proteus vulgaris 9920; Proteus vulgaris, 9920, read-out: minimum inhibitory concentration (MIC)): 125 µg/mL (≈ 459 µM); MIC ([3]; Staphylococcus aureus, 209, read-out: minimum inhibitory concentration (MIC)): 3.1 µg/mL (≈ 11.4 µM); MIC (Escherichia coli 198; Escherichia coli, 198, read-out: minimum inhibitory concentration (MIC)): 6.2 µg/mL (≈ 22.8 µM); inhibition of growth at 10 µg/mL (Ceratocystis ulmi [4]): 4%; inhibition of growth at 10 µg/mL (Ceratocystis ulmi [5]): 38%
